# In US12053473B2, “Benzylamino substituted quinazolines and derivatives as SOS1 inhibitors” (priority 2016, dated 2024):
# Where two headings read alike, the source gives them in different places.
# Molecular target: SOS1 and KRAS G12D (protein-protein interaction) (Homo sapiens, UniProt Q07889)
# Assay: KRAS::SOS1 AlphaScreen binding assay
# Experimental: KRAS::SOS1 AlphaScreen Binding Assay
# Low IC50 values are indicative of high potency of the SOS1 inhibitor compound in this assay setting:
# 10 nM (final assay concentration) KRAS G12D, 10 μM (final assay concentration) GDP and 5 nM (final assay concentration) GST-SOS1 are mixed in assay buffer prior to use and kept at room temperature.
# AlphaLSA Glutathione Acceptor Beads and AlphaScreen Streptavidin Donor Beads are mixed in assay buffer at a concentration of 10 μg/mL (final assay concentration) each prior to use and kept at room temperature.
# Compounds are diluted to a final start concentration of 100 μM and are tested in duplicate. […] For compound a start concentration of 100 μM, 150 nL of compound solution is transferred per well in 11 concentrations in duplicate with serial 1:5 dilutions.
# The assay is run using a fully automated robotic system in a darkened room below 100 Lux. 10 μL of KRAS::SOS1 GDP mix is added into columns 1-24 to the 150 nL of compound solution (final dilution in the assay 1:100, final DMSO concentration 1%).
# After a 30 minute incubation time 5 μL of bead mix is added into columns 1-23. Plates are kept at room temperature in a darkened incubator. After a further 60 minute incubation, the signal is measured using a PerkinElmer Envision HTS Multilabel Reader using the AlphaScreen specifications from PerkinElmer. Each plate contains the following controls: • diluted DMSO+KRAS::SOS1 GDP mix+bead mix • diluted DMSO+KRAS::SOS1 GDP mix Result Calculation:
# IC50 values are calculated and analyzed using a 4 parametric logistic model.
# [1] = values marked with * in the table, read-out: IC50 (SOS1)
# [2] = assay buffer without EDTA (values not marked with an asterisk), read-out: IC50 (SOS1)
# [3] = assay buffer with 100 μM EDTA (values marked with an asterisk), read-out: IC50 (SOS1)
compound,measurement,setting,value
Cc1nc(N[C@H](C)c2cc(N)cc(C(F)(F)F)c2)c2cc(-c3ccn(C)c(=O)c3)c(C)cc2n1 [I-348],IC50,read-out: IC50 (SOS1),7 nM
COc1cc2nc(C)nc(N[C@H](C)c3cccc(C)c3)c2cc1C1CCS(=O)(=O)CC1 [I-312],IC50,read-out: IC50 (SOS1),18 nM
Cc1cccc([C@@H](C)Nc2nc(C)nc3ccc(-c4ccc(=O)n(CC(=O)N(C)C)c4)cc23)c1 [I-336],IC50,[1],26 nM
Cc1nc(N[C@H](C)c2cccc(C(F)(F)F)c2)c2cc(C3CCN(CC(=O)O)CC3)ccc2n1 [I-293],IC50,[2],11 nM
COCCN(C)C(=O)[C@H]1CC[C@H](c2ccc3nc(C)nc(N[C@H](C)c4cc(N)cc(C(F)(F)F)c4)c3c2)CC1 [I-236],IC50,read-out: IC50 (SOS1),2 nM
Cc1nc(N[C@H](C)c2cccc(C(F)(F)F)c2)c2cc(C3=CCC(C(=O)N(C)C)CC3)ccc2n1 (stereo partly shown) [I-222],IC50,read-out: IC50 (SOS1),19 nM
Cc1nc(N[C@H](C)c2cccc(C(F)(F)F)c2)c2cc(C3(O)CCS(=O)(=O)CC3)ccc2n1 [I-21],IC50,[2],20 nM
COc1cc(-c2cc3c(N[C@H](C)c4cccc(C(F)(F)F)c4)nc(C)nc3cc2OC)ccc1C(=O)N(C)C [I-217],IC50,read-out: IC50 (SOS1),43 nM
CC(=O)N1CCC(O)(c2ccc3nc(C)nc(N[C@H](C)c4cccc(C(F)(F)F)c4)c3c2)CC1 [I-48],IC50,[2],15 nM
COc1cc2nc(C)nc(N[C@H](C)c3cccc(C)c3)c2cc1C1CCN(C(C)=O)CC1 [I-281],IC50,read-out: IC50 (SOS1),12 nM
COCC(=O)N1CCC(n2cc(-c3ccc4nc(C)nc(N[C@H](C)c5cccc(C)c5)c4c3)cn2)CC1 [I-219],IC50,[1],34 nM
Cc1nc(N[C@H](C)c2cccc(C(F)(F)F)c2)c2cc([C@H]3CC[C@@H](C(=O)N(C)C4COC4)CC3)ccc2n1 [I-233],IC50,read-out: IC50 (SOS1),38 nM
Cc1nc(N[C@H](C)c2cc(N)cc(C(F)(F)F)c2)c2cc([C@H]3CC[C@@H](C(=O)N(C)C[C@H](C)O)CC3)ccc2n1 [I-255],IC50,read-out: IC50 (SOS1),8 nM
Cc1nc(N[C@H](C)c2cc(N)cc(C(F)(F)F)c2)c2cc([C@H]3CC[C@@H](C(=O)N4CCN(C)CC4)CC3)cc(C)c2n1 [I-362],IC50,read-out: IC50 (SOS1),8 nM
COc1cc2nc(C)nc(N[C@H](C)c3cccc(C(F)(F)F)c3)c2cc1-c1ccc(C(=O)N(C)CCO)cc1 [I-214],IC50,read-out: IC50 (SOS1),40 nM
Cc1nc(N[C@H](C)c2cc(N)cc(C(F)(F)F)c2)c2cc([C@H]3CC[C@H](C(=O)N4CCOCC4)CC3)ccc2n1 [I-234],IC50,read-out: IC50 (SOS1),2 nM
CNC(=O)Cn1cc(-c2ccc3nc(C)nc(N[C@H](C)c4cccc(C(F)(F)F)c4)c3c2)ccc1=O [I-344],IC50,[1],37 nM
Cc1nc(N[C@H](C)c2cccc(C(F)(F)F)c2)c2cc([C@]3(O)CC[C@@H](O)CC3)ccc2n1 [I-60],IC50,,10 nM
Cc1cccc([C@@H](C)Nc2nc(C)nc3cc(C)c(C4CCN(CC(=O)O)CC4)cc23)c1 [I-291],IC50,[2],10 nM
Cc1nc(N[C@H](C)c2cc(N)cc(C(F)(F)F)c2)c2cc(-c3cnn(CC(=O)N(C)C)c3)ccc2n1 [I-86],IC50,read-out: IC50 (SOS1),8 nM
Cc1nc(N[C@H](C)c2cccc(C(F)(F)F)c2)c2cc(C3CCOCC3)ccc2n1 [I-153],IC50,[2],33 nM
COc1cc2nc(C)nc(N[C@H](C)c3cc(N)cc(C(F)(F)F)c3)c2cc1[C@H]1CC[C@H](C(=O)N2CCOCC2)CC1 [I-359],IC50,read-out: IC50 (SOS1),2 nM
Cc1nc(N[C@H](C)c2cccc(C(F)(F)F)c2)c2cc(C3CCN(CC(=O)N(C)C)CC3)ccc2n1 [I-273],IC50,read-out: IC50 (SOS1),11 nM
COc1cc2nc(C)nc(N[C@H](C)c3cccc(C(F)(F)F)c3F)c2cc1C1(O)CCC(C(=O)N(C)C)CC1 (stereo partly shown) [I-77],IC50,[2],5 nM
CC(=O)N1CC2(C1)CC(O)(c1cc(C)c3nc(C)nc(N[C@H](C)c4cccc(C(F)(F)F)c4)c3c1)C2 [I-42],IC50,[2],26 nM
Cc1nc(N[C@H](C)c2cccc(C(F)(F)F)c2)c2cc([C@]3(O)CC[C@H](C(=O)N(C)C)CC3)ccc2n1 [I-78],IC50,[2],27 nM
COc1cc2nc(C)nc(N[C@H](C)c3cccc(C)c3)c2cc1-c1ccc(C(=O)N(C)C)nc1 [I-190],IC50,[2],34 nM
Cc1cccc([C@@H](C)Nc2nc(C)nc3ccc(-c4ccc(=O)n(C)c4)cc23)c1 [I-103],IC50,[1],46 nM
Cc1nc(N[C@H](C)c2cccc(C(F)(F)F)c2)c2cc(-c3ccc(=O)n(CC(N)=O)c3)ccc2n1 [I-343],IC50,[1],40 nM
COc1cc2nc(C)nc(N[C@H](C)c3cc(N)cc(C(F)(F)F)c3)c2cc1[C@H]1CC[C@@H](C(=O)N2CCOCC2)CC1 [I-360],IC50,read-out: IC50 (SOS1),25 nM
COc1cc2nc(C)nc(N[C@H](C)c3cc(N)cc(C(F)(F)F)c3)c2cc1[C@H]1CC[C@H](C(=O)N(C)C)CC1 [I-355],IC50,read-out: IC50 (SOS1),2 nM
Cc1nc(N[C@H](C)c2cccc(C(F)(F)F)c2)c2cc(C(C)CC(=O)NC3CC3)c(C)cc2n1 (stereo partly shown) [I-379],IC50,read-out: IC50 (SOS1),12 nM
COc1cc2nc(C)nc(N[C@H](C)c3cccc(C)c3)c2cc1[C@H]1CC[C@H](C(=O)N(C)C)CC1 [I-267],IC50,read-out: IC50 (SOS1),9 nM
Cc1nc(N[C@H](C)c2cccc(C(F)(F)F)c2)c2cc(-c3cc4n(n3)CCC(=O)N4)ccc2n1 [I-88],IC50,[1],30 nM
COc1cc2nc(C)nc(N[C@H](C)c3cccc(C)c3)c2cc1O[C@H]1CCN(C(C)=O)C1 [I-4],IC50,[2],30 nM
CONC(=O)CC(C)c1ccc2nc(C)nc(N[C@H](C)c3cccc(C(F)(F)F)c3)c2c1 (stereo partly shown) [I-376],IC50,read-out: IC50 (SOS1),34 nM
CCC(=O)N1CC[C@H](Oc2cc3c(N[C@H](C)c4cc(N)cc(C(F)(F)F)c4)nc(C)nc3cc2C)C1 [I-53],IC50,[2],3 nM
COc1cc2nc(C)nc(N[C@H](C)c3cc(N)cc(C(F)(F)F)c3)c2cc1-c1ccc(=O)n(C(C)C)c1 [I-351],IC50,read-out: IC50 (SOS1),13 nM
COc1cc2nc(C)nc(N[C@H](C)c3cccc(C(F)(F)F)c3)c2cc1O[C@H]1CCN(C(C)=O)C1 [I-5],IC50,[2],13 nM
CCn1cc(-c2cc3c(N[C@H](C)c4cc(N)cc(C(F)(F)F)c4)nc(C)nc3cc2OC)ccc1=O [I-350],IC50,read-out: IC50 (SOS1),9 nM
COc1cc2nc(C)nc(N[C@H](C)c3cccc(S(C)(=O)=O)c3)c2cc1O[C@H]1CCOC1 [I-3],IC50,[3],47 nM
COCC(=O)N1CCC(O)(c2cc3c(N[C@H](C)c4cccc(C(F)(F)F)c4F)nc(C)nc3cc2OC)CC1 [I-46],IC50,[2],4 nM
COc1cc2nc(C)nc(N[C@H](C)c3cc(N)cc(C(F)(F)F)c3F)c2cc1-c1ccc(=O)n(C)c1 [I-110],IC50,read-out: IC50 (SOS1),8 nM
Cc1cccc([C@@H](C)Nc2nc(C)nc3ccc(C4CCNCC4)cc23)c1 [I-183],IC50,[3],38 nM
COc1cc2nc(C)nc(N[C@H](C)c3cccc(C4(O)COC4)c3)c2cc1O[C@H]1CCOC1 [I-16],IC50,[2],38 nM
Cc1nc(N[C@H](C)c2cc(N)cc(C(F)(F)F)c2)c2cc([C@H]3CC[C@H](C(=O)N(C)C[C@H](C)O)CC3)ccc2n1 [I-254],IC50,read-out: IC50 (SOS1),2 nM
COCC(=O)N1CCC(c2ccc3nc(C)nc(N[C@H](C)c4cccc(C)c4)c3c2)CC1 [I-277],IC50,[1],22 nM
COCC(=O)N1CC=C(c2cc3c(N[C@H](C)c4cccc(C(F)(F)CO)c4)nc(C)nc3cc2OC)CC1 [I-286],IC50,read-out: IC50 (SOS1),2 nM
COc1cc2nc(C)nc(N[C@H](C)c3cc(N)cc(C(F)(F)F)c3)c2cc1[C@H]1CC[C@H](C(=O)N2CCN(C)CC2)CC1 [I-353],IC50,read-out: IC50 (SOS1),2 nM
Cc1nc(N[C@H](C)c2cc(N)cc(C(F)(F)F)c2)c2cc([C@H]3CC[C@H](C(=O)N4CCN(C)CC4)CC3)cc(C)c2n1 [I-361],IC50,read-out: IC50 (SOS1),5 nM
COc1cc2nc(C)nc(N[C@H](C)c3cccc(C4(O)COC4)c3)c2cc1C1CCN(C(C)=O)CC1 [I-167],IC50,[2],18 nM
Cc1nc(N[C@H](C)c2cc(N)cc(C(F)(F)F)c2)c2cc([C@H]3CC[C@H](C(=O)N(C)C)CC3)cc(C)c2n1 [I-363],IC50,read-out: IC50 (SOS1),4 nM
Cc1nc(N[C@H](C)c2cccc(Cl)c2F)c2cc(C3=CCNCC3)ccc2n1 [I-170],IC50,[3],24 nM
COc1cc2nc(C)nc(N[C@H](C)c3cccc(C(F)(F)CO)c3)c2cc1C1CCOCC1 [I-164],IC50,[2],3 nM
COc1c(C2(O)CCN(C(C)=O)CC2)cc2c(N[C@H](C)c3cccc(C(F)(F)F)c3F)nc(C)nc2c1C [I-20],IC50,[2],7 nM
Cc1cccc([C@@H](C)Nc2nc(C)nc3c(C)cc(C4CCN(CC(=O)O)CC4)cc23)c1 [I-292],IC50,[2],28 nM
Cc1cccc([C@@H](C)Nc2nc(C)nc3ccc([C@H]4CC[C@H](C(=O)N5CCC(O)C5)CC4)cc23)c1 (stereo partly shown) [I-266],IC50,read-out: IC50 (SOS1),25 nM
COCCN1CCN(C(=O)[C@H]2CC[C@@H](c3ccc4nc(C)nc(N[C@H](C)c5cc(N)cc(C(F)(F)F)c5)c4c3)CC2)CC1 [I-241],IC50,read-out: IC50 (SOS1),7 nM
COc1cc2nc(C)nc(N[C@H](C)c3cccc(C(F)(F)F)c3C)c2cc1[C@H]1CC[C@H](C(=O)N(C)CCO)CC1 [I-294],IC50,read-out: IC50 (SOS1),5 nM
COC1CN(C(=O)[C@H]2CC[C@H](c3ccc4nc(C)nc(N[C@H](C)c5cccc(C(F)(F)F)c5)c4c3)CC2)C1 [I-230],IC50,read-out: IC50 (SOS1),32 nM
COc1cc2nc(C)nc(N[C@H](C)c3cccc(C)c3)c2cc1-c1ccn(CC(=O)N(C)C)c(=O)c1 [I-338],IC50,[1],39 nM
COc1cc2nc(C)nc(N[C@H](C)c3cccc(C(F)(F)F)c3)c2cc1[C@]1(O)CC[C@@H](O)CC1 [I-57],IC50,,10 nM
COc1cc2nc(C)nc(N[C@H](C)c3cccc(C(F)(F)F)c3)c2cc1-c1ccc(C(=O)N(C)C)nc1 [I-189],IC50,[2],23 nM
Cc1cccc([C@@H](C)Nc2nc(C)nc3ccc(-c4ccn(CC(=O)O)c(=O)c4)cc23)c1 [I-342],IC50,[1],48 nM
